Source: publication PMC11288027, “Exploring novel microbial metabolites and drugs for inhibiting Clostridioides difficile” (mSphere, 2024)
Structures can show the parent of a compound that is named as a salt. Where two headings read alike, the source gives them in different places.

Tests used:
E. fecalis = experiment: MIC against human gut microbiota; type: cell-based, Enterococcus faecalis; details: Enterococcus faecalis, read-out: minimum inhibitory concentration (MIC)
MRSA = system: MRSA; design: method as in PMID 26765953; details: cited from earlier work
L. casei = experiment: MIC against human gut microbiota; type: cell-based; details: Lacticaseibacillus casei
L. rhamanosus = experiment: MIC against human gut microbiota; type: cell-based, Lactobacillus rhamnoosus; details: Lactobacillus
L. brevis = experiment: MIC against human gut microbiota; type: cell-based, Lactobacillus brevis; details: Levilactobacillus brevis
B. fragilis = experiment: MIC against human gut microbiota; type: cell-based, Bacteroides fragilis; details: for MIC: Bacteroides fragilis, read-out: minimum inhibitory concentration (MIC)
A. baumannii = system: A. baumannii; design: method as in PMID 31105656; details: cited from earlier work
[1] = system: C. difficile ATCC BAA-1870; experiment: MIC of active hits by broth microdilution; details: for MIC: Clostridioides difficile, ATCCBAA1870, 48 h
Bif. angulatum = experiment: MIC against human gut microbiota; type: cell-based, Bifidobacterium angulatum; details: Bifidobacterium angulatum, read-out: minimum inhibitory concentration (MIC)
Bif. breve = experiment: MIC against human gut microbiota; type: cell-based, Bifidobacterium breve; details: Bifidobacterium breve
enterococcal species = experiment: MIC against human gut microbiota, summary in text; type: cell-based; details: summary over the Enterococcus strains of Table 4
[2] = system: vancomycin-resistant enterococci (VRE); design: method as in PMID 26765953; details: cited from earlier work
Bif. longum = experiment: MIC against human gut microbiota; type: cell-based, Bifidobacterium longum; details: Bifidobacterium longum, read-out: minimum inhibitory concentration (MIC)
[3] = system: Acinetobacter calcoaceticus; design: method as in PMID 31105656; details: cited from earlier work
B. dorei = experiment: MIC against human gut microbiota; type: cell-based, Bacteroides dorei; details: Phocaeicola dorei, read-out: minimum inhibitory concentration (MIC)
E. faecium = experiment: MIC against human gut microbiota; type: cell-based, Enterococcus faecium; details: Enterococcus faecium, read-out: minimum inhibitory concentration (MIC)
[4] = system: C. difficile clinical isolates; experiment: MIC against a panel of 20 C. difficile clinical isolates (broth microdilution); type: cell-based, Clostridioides difficile; details: Clostridioides difficile; for MIC50: concentration that inhibited 50% of the 20 C. difficile clinical isolates
Bif. adolescentis = experiment: MIC against human gut microbiota; type: cell-based, Bifidobacterium adolescentis; details: Bifidobacterium adolescentis, read-out: minimum inhibitory concentration (MIC)
[5] = system: C. difficile ATCC BAA-1870; experiment: Time-kill assay at 5 × MIC; details: C. difficile ATCC BAA-1870, ~10^6 CFU/mL, up to 24 h
[6] = C. difficile ATCC BAA-1870, 48 h anaerobic

## N=C(N/N=C/c1ccc(Cl)cc1)N/N=C/c1ccc(Cl)cc1 [Robenidine hydrochloride]
E. fecalis; E. fecalis HM-970, TSB, aerobic
  MIC: ≤ 2 µg/mL
MRSA
  MIC: 8.1 µM
L. casei; ATCC334, L. casei ATCC 334, MRS broth, 5% CO2, read-out: minimum inhibitory concentration (MIC)
  MIC: 16 µg/mL
L. rhamanosus; ATCC53103, L. rhamanosus ATCC-53103, MRS broth, 5% CO2, read-out: minimum inhibitory concentration (MIC)
  MIC: 16 µg/mL
L. brevis; ATCC14864, L. brevis ATCC-14864, MRS broth, 5% CO2, read-out: minimum inhibitory concentration (MIC)
  MIC: 8 µg/mL
B. fragilis; B. fragilis HM- 709, BHIS broth, anaerobic
  MIC: ≤ 2 µg/mL
B. fragilis; B. fragilis HM- 718, BHIS broth, anaerobic
  MIC: ≤ 2 µg/mL
A. baumannii
  MIC: 8 µg/mL
[1]; [6]
  MIC (μM): 8 µM
  MIC: 2.97 µg/mL
Bif. angulatum; Bif. angulatum HM- 1189, BHIS broth, anaerobic
  MIC: ≤ 2 µg/mL
Bif. breve; ATCC15700, Bif. breve ATCC 15700, BHIS broth, anaerobic, read-out: minimum inhibitory concentration (MIC)
  MIC: ≤ 2 µg/mL
Enterococcal species
  MIC: ≤ 2 µg/mL
[2]
  MIC: 4.7 µM
Bif. longum; Bif. longum HM- 845, BHIS broth, anaerobic
  MIC: ≤ 2 µg/mL
Bif. longum; Bif. longum HM- 846, BHIS broth, anaerobic
  MIC: ≤ 2 µg/mL
Bif. longum; Bif. longum HM- 847, BHIS broth, anaerobic
  MIC: ≤ 2 µg/mL
Bif. longum; Bif. longum HM- 848, BHIS broth, anaerobic
  MIC: ≤ 2 µg/mL
[3]
  MIC: 2 µg/mL
B. dorei; B. dorei HM- 719, BHIS broth, anaerobic
  MIC: ≤ 2 µg/mL
E. faecium; E. faecium HM-202, TSB, aerobic
  MIC: ≤ 2 µg/mL
[4]; 48 h, read-out: MIC50
  MIC50: 1 µg/mL
[4]; ATCC630, C. difficile ATCC 630, read-out: minimum inhibitory concentration (MIC)
  MIC: 1 µg/mL
[4]; ATCC43255, C. difficile ATCC 43255, read-out: minimum inhibitory concentration (MIC)
  MIC: 1 µg/mL
[4]; ATCCBAA1870, C. difficile ATCC BAA-1870 (Ribotype-027), purchased compounds, panel test, read-out: minimum inhibitory concentration (MIC)
  MIC: 2 µg/mL
[4]; C. difficile CD-1 (Ribotype-027), read-out: minimum inhibitory concentration (MIC)
  MIC: 1 µg/mL
[4]; C. difficile CD-6 (Ribotype-027), read-out: minimum inhibitory concentration (MIC)
  MIC: 1 µg/mL
[4]; C. difficile CD-10(Ribotype-027), read-out: minimum inhibitory concentration (MIC)
  MIC: 1 µg/mL
[4]; C. difficile CD-12, read-out: minimum inhibitory concentration (MIC)
  MIC: 1 µg/mL
[4]; C. difficile CD-13, read-out: minimum inhibitory concentration (MIC)
  MIC: 2 µg/mL
[4]; C. difficile CD-15, read-out: minimum inhibitory concentration (MIC)
  MIC: 2 µg/mL
[4]; C. difficile CD-22, read-out: minimum inhibitory concentration (MIC)
  MIC: 2 µg/mL
[4]; C. difficile CD-23, read-out: minimum inhibitory concentration (MIC)
  MIC: 1 µg/mL
[4]; C. difficile CD-24, read-out: minimum inhibitory concentration (MIC)
  MIC: 1 µg/mL
[4]; C. difficile CD-26 (Ribotype-027), read-out: minimum inhibitory concentration (MIC)
  MIC: 1 µg/mL
[4]; C. difficile CD-28, read-out: minimum inhibitory concentration (MIC)
  MIC: 1 µg/mL
[4]; C. difficile CD-29 (Ribotype-027), read-out: minimum inhibitory concentration (MIC)
  MIC: 1 µg/mL
[4]; C. difficile CD-30, read-out: minimum inhibitory concentration (MIC)
  MIC: 2 µg/mL
[4]; C. difficile NR-49302, read-out: minimum inhibitory concentration (MIC)
  MIC: 1 µg/mL
[4]; C. difficile NR-49304, read-out: minimum inhibitory concentration (MIC)
  MIC: 1 µg/mL
[4]; C. difficile NR-49308, read-out: minimum inhibitory concentration (MIC)
  MIC: 1 µg/mL
[4]; C. difficile NR-49319, read-out: minimum inhibitory concentration (MIC)
  MIC: 1 µg/mL
[4]; read-out: MIC50
  MIC50: 1 µg/mL
[4]; concentration that inhibited 90% of the 20 C. difficile clinical isolates, read-out: MIC90
  MIC90: 2 µg/mL
Bif. adolescentis; Bif. adolescentis HM- 633, BHIS broth, anaerobic
  MIC: ≤ 2 µg/mL

## CN[C@H](CC(C)C)C(=O)N[C@H]1C(=O)N[C@@H](CC(N)=O)C(=O)N[C@H]2C(=O)N[C@H]3C(=O)N[C@H](C(=O)N[C@H](C(=O)O)c4cc(O)cc(O)c4-c4cc3ccc4O)[C@H](O)c3ccc(c(Cl)c3)Oc3cc2cc(c3O[C@@H]2O[C@H](CO)[C@@H](O)[C@H](O)[C@H]2O[C@H]2C[C@](C)(N)[C@H](O)[C@H](C)O2)Oc2ccc(cc2Cl)[C@H]1O [Vancomycin, vancomycin hydrochloride]
E. fecalis
  MIC: > 256 µg/mL
L. casei; ATCC334, read-out: minimum inhibitory concentration (MIC)
  MIC: > 256 µg/mL
L. rhamanosus; ATCC53103, read-out: minimum inhibitory concentration (MIC)
  MIC: > 256 µg/mL
L. brevis; ATCC14864, read-out: minimum inhibitory concentration (MIC)
  MIC: > 256 µg/mL
B. fragilis
  minimum inhibitory concentration (MIC): 32 µg/mL
  MIC: 16 µg/mL
[1]
  MIC: 1 µg/mL
Bif. angulatum
  MIC: ≤ 2 µg/mL
[5]
  time to eliminate / clear C. difficile: ≤ 24 h
Bif. breve; ATCC15700, read-out: minimum inhibitory concentration (MIC)
  MIC: ≤ 2 µg/mL
Bif. longum
  MIC: ≤ 2 µg/mL
B. dorei
  MIC: 16 µg/mL
E. faecium
  MIC: ≤ 2 µg/mL
[4]
  MIC90: 2 µg/mL
  MIC50: 0.5 µg/mL
[4]; 48 h
  MIC50: 0.5 µg/mL
[4]; ATCC630, read-out: minimum inhibitory concentration (MIC), C. difficile ATCC 630
  MIC: 0.25 µg/mL
[4]; ATCC43255, read-out: minimum inhibitory concentration (MIC), C. difficile ATCC 43255
  MIC: 0.25 µg/mL
[4]; ATCCBAA1870, read-out: minimum inhibitory concentration (MIC), C. difficile ATCC BAA-1870 (Ribotype-027), purchased compounds, panel test
  MIC: 1 µg/mL
[4]; read-out: minimum inhibitory concentration (MIC), C. difficile CD-1 (Ribotype-027)
  MIC: 2 µg/mL
[4]; read-out: minimum inhibitory concentration (MIC), C. difficile CD-6 (Ribotype-027)
  MIC: 2 µg/mL
[4]; read-out: minimum inhibitory concentration (MIC), C. difficile CD-10(Ribotype-027)
  MIC: 2 µg/mL
[4]; read-out: minimum inhibitory concentration (MIC), C. difficile CD-12
  MIC: 1 µg/mL
[4]; read-out: minimum inhibitory concentration (MIC), C. difficile CD-13
  MIC: 0.5 µg/mL
[4]; read-out: minimum inhibitory concentration (MIC), C. difficile CD-15
  MIC: 0.5 µg/mL
[4]; read-out: minimum inhibitory concentration (MIC), C. difficile CD-22
  MIC: 0.5 µg/mL
[4]; read-out: minimum inhibitory concentration (MIC), C. difficile CD-23
  MIC: 0.25 µg/mL
[4]; read-out: minimum inhibitory concentration (MIC), C. difficile CD-24
  MIC: 0.25 µg/mL
[4]; read-out: minimum inhibitory concentration (MIC), C. difficile CD-26 (Ribotype-027)
  MIC: 1 µg/mL
[4]; read-out: minimum inhibitory concentration (MIC), C. difficile CD-28
  MIC: 0.5 µg/mL
[4]; read-out: minimum inhibitory concentration (MIC), C. difficile CD-29 (Ribotype-027)
  MIC: 1 µg/mL
[4]; read-out: minimum inhibitory concentration (MIC), C. difficile CD-30
  MIC: 0.5 µg/mL
[4]; read-out: minimum inhibitory concentration (MIC), C. difficile NR-49302
  MIC: 0.5 µg/mL
[4]; read-out: minimum inhibitory concentration (MIC), C. difficile NR-49304
  MIC: 0.5 µg/mL
[4]; read-out: minimum inhibitory concentration (MIC), C. difficile NR-49308
  MIC: 0.5 µg/mL
[4]; read-out: minimum inhibitory concentration (MIC), C. difficile NR-49319
  MIC: 0.5 µg/mL
Bif. adolescentis
  MIC: ≤ 2 µg/mL
